Where “and” joins values, the source holds several entries; their conditions need not be identical. Identical values can stand only once. Like-named read-outs stand apart in the source and are kept apart here.
How the values were obtained:
T-47D = assay: NCI-60 five-dose assay; format: cell-based; settings: Homo sapiens, T47D
Protocol: (§1) A number of our most promising compounds identified through preliminary cell viability testing (23c, 23d, 23f, 23h, 23l, 23m, 23n, 23o, 24f, 24l, 25n and 26n) were selected for NCI drug screening in the 60-cell-line panel. The panel includes nine subcategories based on cancer tissue types, which include leukemia, ovarian, central nervous system, breast, lung, prostate, skin, renal and colon cancer. The compounds were initially assessed in a one-dose assay at a fixed treatment concentration of 10 µM. The compounds selected for further investigation were progressed to a five-dose assay across the concentration ranges of 0.01, 0.1, 1, 10 and 100 µM [72]. The endpoints assessed in the screening protocol were GI50, TGI and LC50 [72].

SF295 = assay: NCI-60 five-dose assay; format: cell-based; settings: Homo sapiens, SF-295
Protocol: as §1

HL-60(TB) = assay: NCI-60 five-dose assay; format: cell-based, human
PGA-1 cells [1] = assay: Annexin V/PI apoptosis assay (FACS); format: cell-based, human; settings: PGA-1, 10 µM
Protocol: (§2) The pro-apoptotic effects of selected nitrovinylethanoanthracene compounds 20a and 20f and anthracene chalcones 23a and 25n in HG-3 cells and PGA-1 cells was then investigated using FITC (fluorescein isothiocyanate), Annexin V/PI (propidium iodide) and FACS (fluorescence-activated cell sorting) analysis to characterize the mode of cellular death induced. Apoptosis was assessed as % total apoptosis (total of early (Q3) and late (Q2) apoptosis).
(§3) CLL cells PGA-1 and HG-3 (1 × 10^6 cells/mL) were treated at 37 °C with either the vehicle (1% (v/v) DMSO) or the ethanoanthracene compounds 20a, 20f, 23a and 25n (10 µM, 5 µM and 1 µM) for 48 h, following the protocol previously described. The cells were then harvested via centrifugation at 400× g in a temperature-controlled Sorvall centrifuge. The cells were rinsed with Ca^2+ Annexin-V-binding buffer (0.1 M HEPES, pH 7.4; 0.14 M NaCl; 25 mM CaCl2, 0.5 mL). The samples were resuspended in FITC Annexin V (diluted 1:33 in Ca^2+ Annexin V-binding buffer, 50 µL) and incubated for 10 min (on ice and protected from light). The samples were washed with Annexin-V-binding buffer and resuspended in a PI solution (0.5 µg/mL, 500 µL) and analyzed within 1 h using a BD Accuri C6 flow cytometer counting 10,000 cells using the FlowJo software Version 10 (FlowJo LLC, Ashland, OR, USA).

HG-3 cells [2] = assay: Annexin V/PI apoptosis assay (FACS); format: cell-based, human
Protocol: as §2, §3

HG-3 cells [3] = settings: 10 µM
PGA-1 cells [4] = settings: 10 µM
[5] = HPLC stability study in phosphate buffers; format: physicochemical; settings: for remaining at 24 h, 14.6 µg/mL / half-life at 14.6 µg/mL: phosphate buffer, 37 °C; for remaining at 24 h, 14.6 µg/mL: HPLC
In short: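 Compound stock (5 mg in 10 mL 80:20 acetonitrile–water) added to phosphate buffers at pH 4, 7.4 and 9 and held at 37 °C. Sampled over 24 h (0 min to 24 h) and analysed by C18 HPLC with UV detection at 254 nm; single experiments.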

Row | SMILES | GI50 (T-47D) [nM] | GI50 (SF295) [nM] | GI50 (HL-60(TB); HL-60(TB)) [nM] | GI50 (HL-60(TB); Homo sapiens, HL-60, HL-60(TB)) [nM] | total apoptosis (early Q3 + late Q2) (PGA-1 cells [1]) | total apoptosis (early Q3 + late Q2) (HG-3 cells [2]; HG-3, 1 µM) [%] | total apoptosis (early Q3 + late Q2) (HG-3 cells [2]; HG-3, 10 µM) | cell viability (HG-3 cells [3]) [%] | cell viability (PGA-1 cells [4]) [%] | recovery at 24 h ([5]; over the pH range studied (pH 4, 7.4 and 9)) [%] | remaining at 24 h, 14.6 µg/mL ([5]; pH 4 buffer, read-out: % remaining 24 h pH 4) [%] | half-life at 14.6 µg/mL ([5]; pH 4 buffer, read-out: Half-life pH 4 (converted)) [h] | remaining at 24 h, 14.6 µg/mL ([5]; pH 7.4 buffer, read-out: % remaining 24 h pH 7.4) [%] | half-life at 14.6 µg/mL ([5]; pH 7.4 buffer, read-out: Half-life pH 7.4 (converted)) [h] | remaining at 24 h, 14.6 µg/mL ([5]; pH 9 buffer, read-out: % remaining 24 h pH 9) [%] | half-life at 14.6 µg/mL ([5]; pH 9 buffer, read-out: Half-life pH 9 (converted)) [h]
1 | O=C(C=CC12c3ccccc3C(c3ccccc31)C1C(=O)N(c3ccc(Cl)cc3)C(=O)C12)c1ccccn1 (centres unmarked) [Compound 25n, (E)-13-(4-Chlorophenyl)-9-(3-oxo-3-(pyridin-2-yl)prop-1-en-1-yl)-9,10-dihydro-9,10-[3,4]epipyrroloanthracene-12,14-dione] | 312 | 379 | 292 | 290 | 87–97% and 87% | 37 | 82–95% and 93% |  |  |  |  |  |  |  |  | 
2 | O=C(/C=C/C12c3ccccc3C(c3ccccc31)C1C(=O)NC(=O)C12)c1ccc(Cl)cc1 (racemic) [Compound 23l, (E)-9-(3-(4-Chlorophenyl)-3-oxoprop-1-en-1-yl)-9,10-dihydro-9,10-[3,4]epipyrroloanthracene-12,14-dione] |  |  | 1470 |  |  |  |  | 0.7 | 5 |  |  |  |  |  |  | 
3 | O=C(C=CC12c3ccccc3C(c3ccccc31)C1C(=O)NC(=O)C12)c1ccc(Br)cc1 (centres unmarked) [Compound 23a, 9-(E)-3-(4-Bromophenyl)-3-oxoprop-1-en-1-yl)-9,10-dihydro-9,10-[3,4]epipyrroloanthracene-12,14-dione] |  |  |  |  | 87–97% and 89% | 33 | 82–95% and 95% |  |  | < 50 | 3.12 | 13.3 | 1.38 | ~7.5 | 0.48 | ~7.5

Source: paper PMC11359702, “Synthesis and Biochemical Evaluation of Ethanoanthracenes and Related Compounds: Antiproliferative and Pro-Apoptotic Effects in Chronic Lymphocytic Leukemia (CLL)” (Pharmaceuticals, 2024)
